Molecular target: T1, Bovine β-lactoglobulin (BLG) (Bos taurus, UniProt P02754)
T1 sequence (P02754 17-178): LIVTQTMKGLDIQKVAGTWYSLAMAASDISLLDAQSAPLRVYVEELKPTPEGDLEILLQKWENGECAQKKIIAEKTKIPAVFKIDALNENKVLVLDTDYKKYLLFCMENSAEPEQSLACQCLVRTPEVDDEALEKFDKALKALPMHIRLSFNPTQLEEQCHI
Experiment: tryptophan fluorescence quenching
Assay type: binding
Details: PBS, pH 7.4, 37 °C; 5 μM BLG; double-log

Kb (×10^3 M^-1): 2.051 × 10^3 M^-1
Structure (SMILES): CC(=O)Oc1ccccc1C(=O)O [aspirin]

From article PMC8898184 (Drug Design, Development and Therapy, 2022)
